Data on 9 compounds can be found in patent publication US20260285853A1, “COMPOUNDS AND METHODS FOR MODULATING SPLICING” (REMIX THERAPEUTICS INC., priority 2023, published 2026).

What all share (format): cell-based
Assay [1] relates to HTT mRNA. Briefly: Splicing RT-qPCR assay, canonical (CJ) and alternative (AJ) junction mRNA, K562 cells. Conditions: Homo sapiens, K562.3 cells, 24 hours; for AC50: read-out: HTT AJ (AC50, increase in AJ mRNA); for IC50: read-out: HTT CJ (IC50, decrease in CJ mRNA). As for the experimental part:
(§1) Compounds described herein were used to modulate RNA transcript abundance in cells. The expression of a target mRNA was measured by detecting the formation of an exon-exon junction in the canonical transcript (CJ). A compound mediated exon-inclusion event was detected by observing an increase in formation of a new junction with an alternative exon (AJ). Real-time qPCR assays were used to detect these splicing switches and interrogate the potency of various compounds towards different target genes. A high-throughput real time quantitative PCR (RT-qPCR) assay was developed to measure these two isoforms of the mRNA (CJ and AJ) for exemplary genes, such as HTT, SMN2, and MYB, together with a control housekeeping gene, GAPDH or GUSB or PPIA, used for normalization. Briefly, the A673 or K562 cell line was treated with various compounds described herein (e.g., compounds of Formula (I)). After treatment, the levels of the HTT, MYB, or SMN2 mRNA targets were determined from each sample of cell lysate by cDNA synthesis followed by qPCR.
(§2) • Cells-to-CT 1-step kit: ThermoFisher A25602, Cells-to-CT lysis reagent: ThermoFisher 4391851C, TaqMan™ Fast Virus 1-Step Master Mix: ThermoFisher 4444436 • GAPDH: VIC-PL, ThermoFisher 4326317E (Assay: Hs99999905_m1)—used for K562/suspension cell lines • GUSB: VIC-PL, ThermoFisher 4326320E (Assay: Hs99999908_m1)—used for K562/suspension cell lines • PPIA: VIC-PL, ThermoFisher 4326316E (Assay: Hs99999904_m1)—used for A673/adherent cell lines
(§3) The K562 cell line was cultured in IMDM with 10% FBS. For K562, cells were diluted with full growth media and plated in either a 96-well plate (50,000 cells in 50 uL media per well) or a 384-well plate (8,000-40,000 cells in 45 uL media per well). An 11-point 3-fold serial dilution of the compounds were made in DMSO then diluted in media in an intermediate plate. Compound was transferred from the intermediate plate to the cell plate with the top dose at a final concentration of 10 uM in the well. Final DMSO concentration was kept at or below 0.25%. Final volume was 100 uL for 96-well plate and 50 uL for 384-well plate. The cell plate was then placed in an incubator at 37° C. with 5% CO2 for 24 hours.
(§4) The cells were then gently washed with 50 uL-100 uL cold PBS before proceeding to addition of lysis buffer. 30 uL-50 uL of room temperature lysis buffer with DNAse I (and optionally RNAsin) was added to each well. Cells were shaken/mixed thoroughly at room temperature for 5-10 minutes for lysis to take place and then 3 uL-5 uL of room temperature stop solution was added and wells were shaken/mixed again. After 2-5 minutes, the cell lysate plate was transferred to ice for RT-qPCR reaction setup. The lysates could also be frozen at −80° C. for later use.
(§5) In some cases, a direct lysis buffer was used. An appropriate volume of 3× lysis buffer (10 mM Tris, 150 mM NaCl, 1.5%-2.5% Igepal and 0.1-1 U/uL RNAsin, pH 7.4) was directly added to either K562 or A673 cells in media and mixed by pipetting 3 times. The plates were then incubated at room temperature with shaking/rocking for 20-50 minutes to allow for lysis to take place. After this time, the cell lysate plate was transferred to ice to set up for the RT-qPCR reactions. The lysates could also be frozen at −80° C. for later use.
(§6) To set up 10 uL RT-qPCR reactions, cell lysates were transferred to 384-well qPCR plates containing the master mix according to the table below. The plates were sealed, gently vortexed, and spun down before the run. The volumes were adjusted accordingly in some instances where the reaction was carried in 20 uL. The table below summarizes the components of the RT-qPCR reactions:
(§7) The RT-qPCR reaction was performed using a QuantStudio (ThermoFisher) under the following fast cycling conditions. All samples and standards were analyzed at least in duplicate. In some instances, bulk room temperature (RT) step of 5-10 minutes was completed for all plates before proceeding with qPCR. […]

Assay [2] concerns MYB mRNA. The description is as above. The conditions noted are these: Homo sapiens, K562.3 cells, 24 hours; for AC50: read-out: MYB AJ (AC50, increase in AJ mRNA); for IC50: read-out: MYB CJ (IC50, decrease in CJ mRNA). As for the experimental part: as §1, §2, §3, §4, §5, §6, §7
Assay [3] relates to HTT mRNA. Briefly: Gene panel canonical junction qPCR assay, decrease in CJ mRNA, Table 3. The conditions noted are these: decrease in canonical junction (CJ) mRNA, gene panel qPCR, Table 3. The procedure, abridged: (§8)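 A673 (DMEM, 10% FBS, 15,000 cells/well) or K562 (IMDM, 10% FBS) cells treated 24 h at 37 °C with 11-point 3-fold dilutions, top 10 uM, DMSO ≤0.25%. Canonical exon-exon junction mRNA measured by RT-qPCR, normalized to GAPDH, GUSB or PPIA and DMSO (ΔΔCt); IC50 from 4-parameter logistic fit.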
In general terms: Real-time PCR tracks product formation cycle by cycle.

For assay [4], the system named is MYB mRNA. The description is as above. The conditions noted are these: decrease in canonical junction (CJ) mRNA, gene panel qPCR, Table 3. Summed up: as §8
Assay [5] relates to SMN2 mRNA. Described as above. The conditions noted are these: decrease in canonical junction (CJ) mRNA, gene panel qPCR, Table 3. The procedure, abridged: as §8
The subject of assay [6] is SH-SY5Y (human neuroblastoma) cells. The assay is described as follows: Cell viability, Cell Titer Glo 2.0 assay. Conditions: read-out: Viability SHSY5Y.3 GI50. The procedure, abridged:
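Toxicity screen in SH-SY5Y cells. Compounds were serially diluted in DMSO and then in medium, giving 0.1% DMSO final. Viability was read with CellTiter-Glo 2.0 after 72 h at 37 °C, 5% CO2, against medium-only blank wells.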
For orientation: ATP-based viability assays read luminescence as a measure of living cells.

For assay [7], the system named is HTT mRNA. Briefly: Splicing RT-qPCR assay (THP), Table 2A. Conditions: Table 2A (THP).
The subject of assay [8] is MYB mRNA. The assay is described as follows: Splicing RT-qPCR assay (THP), Table 2A. The conditions noted are these: Table 2A (THP).

Structures are written as SMILES. Structures can show the parent of a compound that is named as a salt. Where only a bound is given, the exact number is not on record here.

The term AC50 denotes the midpoint of the concentration-response curve, whichever way the signal moves. One may read the IC50 as the concentration at which inhibition is half-maximal. In general, GI50 refers to the concentration that inhibits growth by half. Consider `Cc1cn2cc(NC(=O)c3ccc(N4CC[C@@H]5CNCC[C@@H]54)c4cn(C)nc34)cc(F)c2n1` (stereo in doubt) [Compound 101, N-(8-fluoro-2-methyl-imidazo[1,2-a]-pyridin-6-yl)-2-methyl-4-(octahydro-pyrrolo[3,2-c]-pyridin-1-yl)indazole-7-carboxamide hydrochloride], for which the half-maximal activity concentration (AC50) is 1 to 10 µM in assay [1] and 0.1 to 1 µM in assay [2]. Moreover, the 50% inhibitory concentration (IC50) in assay [1] is 1 to 10 µM; in assay [2] it was 0.1 to 1 µM; in assay [3], 1 to 10 µM; in assay [4], 0.1 to 1 µM; in assay [5] it was < 0.1 µM. The GI50 in assay [6] lay within 1 to 10 µM.
Take `Cc1cn2cc(NC(=O)c3ccc(N4CCC5NCCCC54)c4cn(C)nc34)cc(F)c2n1` (stereo not drawn) [Compound 100, N-(8-fluoro-2-methylimidazo[1,2-a]pyridin-6-yl)-2-methyl-4-(octahydropyrrolo[3,2-b]pyridin-1-yl)indazole-7-carboxamide]: the AC50 in assay [1] lay in the range of 1 to 10 µM; in assay [2] it was 0.1 to 1 µM. Also, the half-inhibitory concentration (IC50) was 1 to 10 µM in assay [1]; 0.1 to 1 µM in assay [2]; 1 to 10 µM in assay [3]; 0.1 to 1 µM in assay [4]; < 0.1 µM in assay [5]. The GI50 in assay [6] was 1 to 10 µM.
With `CN[C@@H]1CN(c2ccc(C(=O)Nc3cc(F)c4nc(C)cn4c3)c3nn(C)cc23)C[C@H]1C` [Compound 107, N-(8-fluoro-2-methyl-imidazo[1,2-a]pyridin-6-yl)-2-methyl-4-[(3R,4S)-3-methyl-4-(methylamino)pyrrolidin-1-yl]indazole-7-carboxamide], the AC50 is > 10 µM in assay [1] and 0.1 to 1 µM in assay [2]. Further, the 50% inhibitory concentration (IC50) in assay [1] is 1 to 10 µM; in assay [2] it was 0.1 to 1 µM; in assay [3], 1 to 10 µM; in assay [4] it was 0.1 to 1 µM; in assay [5] it was < 0.1 µM. Moreover, the concentration for 50% growth inhibition (GI50) in assay [6] lay in the range of 1 to 10 µM.
Consider `CN[C@@H]1CN(c2ccc(C(=O)Nc3cc(F)c4nc(C)cn4c3)c3nn(C)cc23)C[C@@H]1C` [Compound 108, N-(8-fluoro-2-methyl-imidazo[1,2-a]pyridin-6-yl)-2-methyl-4-[(3S,4S)-3-methyl-4-(methylamino)-pyrrolidin-1-yl]indazole-7-carboxamide], for which the AC50 in assay [1] was > 10 µM; in assay [2], 0.1 to 1 µM. For the same compound, the half-maximal inhibitory concentration (IC50) in assay [1] was 1 to 10 µM; in assay [2], 0.1 to 1 µM; in assay [3], 1 to 10 µM; in assay [4], 0.1 to 1 µM; in assay [5] it was < 0.1 µM. In addition, in assay [6], the concentration for 50% growth inhibition (GI50) lay in the range of 1 to 10 µM.
On to `COCCN[C@H]1CCN(c2ccc(C(=O)Nc3cc(F)c4nc(C)cn4c3)c3nn(C)cc23)C1` [Compound 112, N-(8-fluoro-2-methyl-imidazo[1,2-a]pyridin-6-yl)-4-[(3S)-3-(2-methoxyethylamino)pyrrolidin-1-yl]-2-methyl-indazole-7-carboxamide], for which the AC50 in assay [1] was > 10 µM; in assay [2], < 0.1 µM. For the same compound, the IC50 was 1 to 10 µM in assay [1]; 0.1 to 1 µM in assay [2]; 1 to 10 µM in assay [3]; 0.1 to 1 µM in assay [4]; < 0.1 µM in assay [5]. Besides, the 50% growth inhibitory concentration (GI50) in assay [6] was in the range of 1 to 10 µM.
Take `Cc1cn2cc(NC(=O)c3ccc(N4CC[C@H](NCCO)C4)c4cn(C)nc34)cc(F)c2n1` [Compound 115, N-(8-fluoro-2-methylimidazo-[1,2-a]-pyridin-6-yl)-4-[(3S)-3-(2-hydroxy-ethylamino)-pyrrolidin-1-yl]-2-methylindazole-7-carboxamide]: the concentration at half-maximal activity (AC50) in assay [1] lay in the range of 1 to 10 µM; in assay [2], 0.1 to 1 µM. Besides, the half-inhibitory concentration (IC50) in assay [1] was 1 to 10 µM; in assay [2] it was 0.1 to 1 µM; in assay [3], 1 to 10 µM; in assay [4] it was 0.1 to 1 µM; in assay [5], < 0.1 µM. Besides, the GI50 in assay [6] was 1 to 10 µM.
Consider `C#CCN[C@@H]1CCN(c2ccc(C(=O)Nc3cc(F)c4nc(C)cn4c3)c3nn(C)cc23)C1` [Compound 122], for which the concentration at half-maximal activity (AC50) in assay [1] fell in the range of 1 to 10 µM; in assay [2], 0.1 to 1 µM. In addition, the 50% inhibitory concentration (IC50) in assay [1] was 1 to 10 µM; in assay [2], 0.1 to 1 µM; in assay [3], 1 to 10 µM; in assay [4], 0.1 to 1 µM; in assay [5], < 0.1 µM. In assay [6], the GI50 is 1 to 10 µM.
Regarding `Cc1cn2cc(NC(=O)c3ccc(N4CC[C@@H](NCC56CC(CO5)C6)C4)c4cn(C)nc34)cc(F)c2n1` [Compound 124, N-(8-fluoro-2-methyl-imidazo[1,2-a]pyridin-6-yl)-2-methyl-4-[(3R)-3-(2-oxabicyclo[2.1.1]hexan-1-ylmethylamino)pyrrolidin-1-yl]indazole-7-carboxamide], the concentration at half-maximal activity (AC50) was > 10 µM in assay [1] and 0.1 to 1 µM in assay [2]. Further, the IC50 in assay [1] is > 10 µM; in assay [2], 1 to 10 µM; in assay [3], > 10 µM; in assay [4], 1 to 10 µM; in assay [5], < 0.1 µM. Also, the GI50 in assay [6] lay in the range of 1 to 10 µM.
As to `CCNC1CCN(c2ccc(C(=O)Nc3cn4cc(C5CC5)nc(C)c4n3)c3nn(C)cc23)CC1` [Compound 309, N-(6-cyclopropyl-8-methylimidazo[1,2-a]-pyrazin-2-yl)-4-[4-(ethylamino)-1-piperidyl]-2-methyl-indazole-7-carboxamide], the AC50 in assay [7] (AJ mRNA increase, read-out: HTT AJ (increase in alternative junction mRNA, AC50)) is > 10 µM; in assay [8] (AJ mRNA increase, read-out: MYB AJ (increase in alternative junction mRNA, AC50)), > 10 µM. Moreover, the concentration for half-maximal inhibition (IC50) was > 10 µM in assay [7] (CJ mRNA decrease, read-out: HTT CJ (decrease in canonical junction mRNA, IC50)); > 10 µM in assay [8] (CJ mRNA decrease, read-out: MYB CJ (decrease in canonical junction mRNA, IC50)); > 10 µM in assay [3]; > 10 µM in assay [4]; > 10 µM in assay [5]. Moreover, the GI50 in assay [6] is > 10 µM.
